{"source": "paper PMC7504387", "about": "“Antimicrobial and Amyloidogenic Activity of Peptides Synthesized on the Basis of the Ribosomal S1 Protein from Thermus Thermophilus” (International Journal of Molecular Sciences, 2020)", "key": {"[1]": {"system": "T. thermophilus cell culture", "type": "cell-based", "details": "for minimal inhibitory concentration (MIC): optical absorption at 600 nm after 24 h incubation, 5 repeats for R23I, 2 for R23T and V10I", "experimental": "UV-Vis spectra were recorded using a spectrophotometr SF-102 (Akvilon, Moscow, Russia). At the end of the incubation, the density of the medium was estimated by spectrophotometry in a cuvette 10 mm with a total volume of 100 μL. The cuvettes were filled with the peptide water solutions and spectra were collected, using a wavelength from 600 nm. Biological activity of peptides was evaluated by their minimum concentration, which that may inhibit the growth of T. thermophilus bacteria culture. Biological activity of peptides was counted by using the following equation: (1) E=1−A (sample with peptide)/A (sample without peptide), where E is a biological activity of peptides, A is an optical absorption after 24 h incubation with and without peptide.\nTo construct a dose-effect curve and estimate the quantitative parameters of the curves, the statistical environment R and the drc package were used. The choice of model for describing the functional dependence was determined by several parameters: the logarithm of the maximum value of the likelihood function (logLik), the Akaike information criterion (IC), and the residual variance (Res var).\nThe algorithm for evaluating antimicrobial activity includes the study of this process and the dose–response relationship. The reaction of a biological object determines a quantitative assessment of the antimicrobial effect, depending not only on the concentration of the peptide, but also on the time of its action. Almost any impact begins with a certain threshold. An important final result of the experiment is the assessment of this threshold—the minimum inhibitory concentration (MIC) at which peptide influence is observed."}, "[2]": {"system": "T. thermophilus cells", "test": "Electron microscopy of intact and peptide-treated T. thermophilus cells", "type": "cell-based", "experimental": "Along with the spectrophotometric method for determining the antimicrobial activity of peptides, the viability of cells was evaluated using electron microscopy. […] At the given peptide concentration, cells with a typical morphology and flagella were often found. Many protein aggregates were also observed. The absence of an antimicrobial effect with an increase in the concentration of the peptide to 1000 μg/mL, consistent with the spectrophotometry data of the antimicrobial activity of peptides (Figure 3).\n(§1) The presence of amyloid fibrils in the test samples was monitored by transmission electron microscopy (TEM). End-point solutions of peptides were collected and the samples were dissolved in the same solution to 0.2 mg/mL before studying with electron microscopy. A formvar-coated copper grid 400 mesh (Electron Microscopy Sciences, Hatfield, PA, USA) was placed on a 10 μL sample. After 5 min absorption, the grids with the preparation were negatively stained for 1.5–2.0 min with 1% (weight/volume) aqueous solution of uranyl acetate. The excess of the staining agent was removed with filter paper. The preparations were analyzed using a JEM-100C (Jeol, Tokyo, Japan) transmission electron microscope at the accelerating voltage of 80 kV. Images were recorded on the Kodak electron image film (SO-163) at nominal magnification of 40,000–60,000."}, "[3]": {"test": "Thioflavine T fluorescence assay of peptide aggregation", "type": "physicochemical", "details": "ThT 0.2 mM, 37 °C; for amyloids in peptide preparation according to ThT fluorescence: peptide alone; for ThT fluorescence intensity, final: peptide alone 0.2 mM, 1% DMSO, end of kinetics (time axis to 80 min)", "experimental": "(§2) Fibrils growth was monitored by thioflavine T (ThT) (Sigma-Aldrich, St. Louis, MO, USA) fluorescence. The kinetics of aggregation of peptides was studied using the method of fluorescence spectroscopy. Each kinetics graph was plotted based on the average of several results measured at different time intervals. To facilitate dissolution, all the samples of peptides were pre-dissolved in 100% DMSO, then buffers 50 mM Tris-HCl, pH 7.5, 150 mM NaCl or 20% acetic acid pH 2.0, 150 mM NaCl were added (1% final concentration DMSO) and filtered through […] membranes to remove small aggregates. ThT is the most commonly used fluorescent dye for the following amyloid formation semi-quantitatively in vitro. Free ThT has excitation and emission maxima at ∼350 and ∼450 nm, respectively (after binding to fibrils, the excitation and emission λmax change to ∼450 and ∼482–485 nm, respectively). A stock solution of ThT was prepared at a concentration of 20 mM in 50 mM Tris-HCl, pH 7.5, 150 mM NaCl or 20% acetic acid pH 2.0, 150 mM NaCl, respectively and stored at 4 °C protected from light. The final concentration of ThT was 0.2 mM, and each peptide was 0.2 mM. ThT was present in the sample during the fibril formation reaction. Measurements of ThT fluorescence were performed on a Cary Eclipse fluorescence spectrophotometer (Varian, Mulgrave, Australia) in quartz cells 3 × 3 mm at 37 °C."}, "[4]": {"test": "Transmission electron microscopy of peptide preparations", "type": "physicochemical", "details": "peptide alone", "experimental": "as §1"}, "[5]": {"system": "ribosomal S1 protein from T. thermophilus", "test": "Electron microscopy, coaggregation of peptide with S1 protein", "experimental": "as §1"}, "[6]": {"system": "ribosomal S1 protein from T. thermophilus", "test": "Thioflavine T fluorescence, coaggregation of peptide with S1 protein", "details": "S1:peptide ratios 1:1 and/or 1:5", "experimental": "as §2"}, "[7]": {"details": "peptide:S1 protein ratio 5:1 (S1:peptide = 1:5)"}}, "note": "“Also recorded” adds a separate entry of the source. Where a SMILES comes first, the peptide text is derived from it. Where no end group is shown, it is not given here. [ ]: non-standard residue; d: D form. Sar = CNCC(=O)O"}
{"molecule": "CC(C)[C@H](NC(=O)CNC(=O)CN(C)C(=O)CNC(=O)CNC(=O)[C@H](CCCNC(=N)N)NC(=O)[C@H](CCCNC(=N)N)NC(=O)[C@H](CCCNC(=N)N)NC(=O)[C@H](CCC(N)=O)NC(=O)[C@H](CCCNC(=N)N)NC(=O)[C@H](CCCNC(=N)N)NC(=O)[C@H](CCCCN)NC(=O)[C@H](CCCCN)NC(=O)[C@@H](N)CCCNC(=N)N)C(=O)N[C@H](C(=O)N[C@@H](CCC(=O)O)C(=O)NCC(=O)N[C@H](C(=O)N[C@H](C(=O)N[C@H](C(=O)N[C@@H](CCC(=O)O)C(=O)N[C@H](C(=O)N[C@H](C(=O)O)[C@@H](C)O)C(C)C)C(C)C)C(C)C)[C@@H](C)O)C(C)C", "note": "[R23T] (HELM PEPTIDE1{R.K.K.R.R.Q.R.R.R.G.G.[Sar].G.V.V.E.G.T.V.V.E.V.T}$$$$V2.0; N-terminus and C-terminus assumed)", "values": [{"measurement": "minimal inhibitory concentration (MIC)", "setting": "[1]; T. thermophilus culture", "result": 500, "unit": "µg/mL"}, {"measurement": "cell morphology by electron microscopy", "setting": "[2]; peptide 100 μg/mL", "result": "did not differ from the control"}, {"measurement": "cell morphology by electron microscopy", "setting": "[2]; peptide 500 μg/mL", "result": "cells were often damaged"}, {"measurement": "amyloids in peptide preparation according to ThT fluorescence", "setting": "[3]", "result": "absence of R23T amyloids"}, {"measurement": "fibril/aggregate formation by electron microscopy", "setting": "[4]; 5 h incubation at 37 °C, 50 mM TrisHCl pH 7.5, 150 mM NaCl", "result": "did not form fibrils, but the aggregates were observed"}, {"measurement": "morphology of peptide/S1 protein mixture by electron microscopy", "setting": "[5]; peptide:S1 protein ratio 1:1", "result": "aggregates are observed; also recorded: aggregates of different sizes"}, {"measurement": "morphology of peptide/S1 protein mixture by electron microscopy", "setting": "[5]; [7]", "result": "aggregates of different morphology (type 1 and type 2), fibrils and thin films are formed; also recorded: both the fibrils and films were formed"}]}
{"molecule": "NC[C@H]1O[C@H](O[C@H]2[C@H](O)[C@@H](O[C@H]3O[C@H](CO)[C@@H](O)[C@H](N)[C@H]3O)[C@H](N)C[C@@H]2N)[C@H](O)[C@@H](O)[C@@H]1O", "note": "[kanamycin, reference compound]", "values": [{"measurement": "change of optical density of T. thermophilus culture over time", "setting": "[1]; 50 μg/mL in medium, OD 600 nm versus sampling time, DMSO control reached 0.8", "result": "no increase in the optical density"}, {"measurement": "effectiveness E = 1 − A(sample with peptide)/A(sample without peptide)", "setting": "[1]; T. thermophilus culture, OD 600 nm, 24 h, maximum observed, probably a limitation of the method", "result": "≤ 0.8"}, {"measurement": "concentration close to 50% of the inhibition of cell culture growth", "setting": "[1]; T. thermophilus culture, dose-response curve, log-logistic model", "result": "~10", "unit": "µg/mL"}]}
{"molecule": "DFGVFVNLG [D9G, amyloidogenic peptide … based on the ribosomal S1 protein from T. thermophilus]", "values": [{"measurement": "biological activity (growth inhibition) in the range of studied concentrations", "setting": "[1]; T. thermophilus culture, OD 600 nm, 24 h, single repeat", "result": "did not show biological activity"}]}
{"molecule": "GlyGlySarGlyVTDFGVFVEI [G14I, elongated peptide GlyGlySarGly[…]]", "values": [{"measurement": "ThT fluorescence intensity, final", "setting": "[3]", "result": 80, "unit": "a.u."}, {"measurement": "amyloids in peptide preparation according to ThT fluorescence", "setting": "[3]", "result": "presence of amyloids"}]}
{"molecule": "GlyGlySarGlyVVEGTVVEVT (GG[Sar]GVVEGTVVEVT) [G14T, elongated peptide GlyGlySarGly…]", "values": [{"measurement": "ThT fluorescence intensity, final", "setting": "[3]", "result": 4, "unit": "a.u."}, {"measurement": "amyloids in peptide preparation according to ThT fluorescence", "setting": "[3]", "result": "presence of amyloids"}, {"measurement": "aggregate/fibril morphology according to electron microscopy", "setting": "[4]; negative staining, TEM", "result": "short dense fibrils"}, {"measurement": "amyloids on joint incubation with S1 protein according to ThT fluorescence", "setting": "[6]", "result": "presence of amyloids, which tend to disaggregate"}, {"measurement": "morphology of peptide/S1 protein mixture by electron microscopy", "setting": "[5]; peptide:S1 protein ratio 1:1", "result": "fibrils are not formed"}]}
{"molecule": "VTDFGVFVEI [V10I]", "values": [{"measurement": "minimal inhibitory concentration (MIC)", "setting": "[1]; T. thermophilus culture", "result": 1000, "unit": "µg/mL"}]}
{"molecule": "VVEGTVVEVT [V10T, unmodified amyloidogenic peptide … based on the ribosomal S1 protein from T. thermophilus]", "values": [{"measurement": "cell morphology by electron microscopy", "setting": "[2]; peptide 100 μg/mL", "result": "had no toxic effect"}, {"measurement": "amyloids on joint incubation with S1 protein according to ThT fluorescence", "setting": "[6]", "result": "presence of amyloids, which tend to disaggregate"}, {"measurement": "morphology of peptide/S1 protein mixture by electron microscopy", "setting": "[5]; peptide:S1 protein ratio 1:1", "result": "only aggregates are present"}, {"measurement": "morphology of peptide/S1 protein mixture by electron microscopy", "setting": "[5]; [7]", "result": "both aggregates and fibrils are present; also recorded: led to the formation of fibrils"}]}
